According to PubChem BioAssay (NCI):
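Exposure lasted 48 hours, with cells grown in 96-well plates and compounds tested at five concentrations. The concentration for full growth arrest is given as TGI.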

Experiments:
Assay in all cases: inhibition of tumour cell growth, NCI panel, 48 h
HCT-15 colon = tested on: HCT-15 colon
SK-OV-3 ovarian = tested on: SK-OV-3 ovarian
RXF 393 renal = tested on: RXF 393 renal
A498 renal = tested on: A498 renal
HCC-2998 colon = tested on: HCC-2998 colon

SMILES	TGI (HCT-15 colon) [µM]	TGI (SK-OV-3 ovarian) [µM]	TGI (RXF 393 renal) [µM]	TGI (A498 renal) [µM]	TGI (HCC-2998 colon) [µM]
CN1C(C)(C)CC(=O)C(Br)C1(C)C (stereo not given)	> 100	> 100	–	–	–
O=c1oc2ccc3ccccc3c2cc1-c1cn2c(n1)sc1ccccc12	> 100	> 100	> 100	> 100	> 100
CC(CNC(=O)c1ccccc1)(CNC(=O)c1ccccc1)[N+](=O)[O-]	> 100	> 100	> 100	–	–
CC(=O)OCC1OC(OC(C)=O)C(Nc2ncc(-c3ccc(C)cc3)s2)C(OC(C)=O)C1OC(C)=O (stereo not given)	60	> 100	29.6	–	57.7
CCCCCCCCCCCCCCCC(=O)Nc1ccn(C2CCC(COP(=O)(O)OCC3OC(n4cc(F)c(=O)[nH]c4=O)CC3OC(C)=O)O2)c(=O)n1 (stereo not given)	> 100	> 90.2	> 100	> 100	> 48.2
CC[C@@H]1CC[C@@H]2[C@H](CC[C@]3(C)[C@@H](OC(C)=O)CC[C@@H]23)[C@H]1C(=O)OC	49.5	> 100	49.8	> 100	> 100
O=C1CCSc2nc(-c3ccc4c(c3)OCO4)nn21	> 10	> 10	> 10	> 10	> 10
CC(C)CC(NC=O)C(=O)NC(Cc1ccccc1)NC(=O)CNC(=O)C(C)NC(=O)C(N)Cc1ccc(O)cc1 (stereo not given)	> 100	> 100	> 100	> 100	–
Cc1ccc(S(=O)(=O)ON2C(=O)c3c(N)c(C#N)c(-c4ccccc4)c(-c4ccccc4)c3C2=O)cc1	37.6	> 100	26.5	44.1	89.1
COc1ccccc1N1C(=O)CSC1c1cc(OC)c(OC)c(OC)c1 (stereo not given)	> 100	> 100	> 100	> 100	> 100
C=CC(OC(=O)C(C)C)c1ccc(OC(=O)C(C)C)cc1 (stereo not given)	20.2	34	–	31.6	26.7
COC(=O)c1ccc(C)cc1C1CN=NC12Cc1cc(C)ccc1C2=O (stereo not given)	> 100	> 100	> 71.6	55.5	> 71.4
COC(=O)CC(CNC(=O)OCc1ccccc1)OCc1ccc(OC)cc1 (stereo not given)	> 100	> 100	> 100	> 100	> 100
O=C(NCCc1ccccc1)c1cc(/C=C/c2cc(O)ccc2O)ccc1O	7.42	26.4	2.93	13.6	21.7
c1ccc2nn(C3CCCO3)nc2c1 (stereo not given)	> 100	> 100	> 100	> 100	> 100
CC(C)COP(C)(=O)C(N)(C(F)(F)F)C(F)(F)F (stereo not given)	> 100	> 100	–	–	> 100
O=C(/C=C/c1ccc(O)c(O)c1)NC(COC(=O)/C=C/c1ccc(O)c(O)c1)C(=O)O (stereo not given)	> 100	> 100	> 100	> 100	> 100
c1ccc2cc(CNCCCCNCCCNCc3ccc4ccccc4c3)ccc2c1	1.58	3.48	3.16	4.42	0.944
Nc1nc(N)c2ncn(-c3ccccc3)c2n1	> 100	> 100	> 100	> 100	> 100
O=C1Nc2ccccc2/C1=C\c1c(-c2ccccc2)nc2n1CCS2	52.3	67.1	47.2	68.8	34.8
O=C1CCN2C(=N1)Sc1ccccc12	> 100	> 100	> 100	–	–
CCOC(=O)C1(C#N)C(C#N)(C#N)C1(C#N)C#N	> 100	> 100	> 100	> 100	> 100
CC(C)OC(=O)NNc1cccc(Cl)c1	> 100	> 100	> 100	> 100	> 100
CC(=O)O[C@H]1CC[C@@]2(C)C(=CC[C@@H]3[C@@H]2CC[C@](C)(c2nnc(C)o2)[C@H]3CC#N)C1	> 100	> 100	> 100	> 100	–
COC(=O)[C@H](COC(C)(C)C)NC(=O)N[C@H](C)c1ccccc1	> 100	> 100	–	> 100	> 100
O=C(c1ccccc1)C(Nc1ccc2ccccc2c1)c1ccccc1 (stereo not given)	> 100	> 100	> 100	69.6	56.6
Cc1ccc(SCC(CF)OC(C)n2cnc3c(Cl)nc(N)nc32)cc1 (stereo not given)	> 100	> 100	–	–	> 100

SMILES	TGI (HCT-15 colon) [µM]	TGI (SK-OV-3 ovarian) [µM]	TGI (RXF 393 renal) [µM]	TGI (A498 renal) [µM]	TGI (HCC-2998 colon) [µM]
O=C(CCc1ccc(O)c(O)c1)NCCc1cc(O)c(O)c(O)c1	32.1	> 100	> 100	> 100	> 100
Cc1cccc2c1c(=O)c1c(O)cc3c(c1n2C)C=CC(C)(C)O3	> 100	> 100	> 100	> 100	> 100
O=C1CCCCC1C(O)(C(F)(F)F)C(F)(F)Cl (stereo not given)	> 10	> 10	> 10	> 10	> 10
C/C(=C\CNc1ncnc2c1ncn2CCC(=O)OC(C)(C)C)CO	–	> 100	> 100	> 100	> 100
CCN(CC)C(=S)N/N=C/c1cc(OC)ccc1O	> 100	> 100	> 100	18	27.8
CCOC(=O)C1=CNC(C(=O)OCC)C1c1cccn1-c1ccccc1 (stereo not given)	> 100	–	69	> 100	> 100
N#CCC1C2CC3C(C2=O)C13 (stereo not given)	> 100	> 100	> 100	> 100	> 100
CC1(C)SCc2nc3ccccc3n21	> 100	> 100	> 100	> 100	> 100
CC(Cc1cccc2c1Nc1ccccc1S2)N(C)CCO (stereo not given)	> 100	> 100	> 100	93.9	> 100
CC1CCC2CC1NC(=O)CCOCCC(=O)NC2(C)C (stereo not given)	> 100	> 100	–	–	> 100
CN1c2ccccc2C(=O)NC12CCNCC2	–	> 100	> 100	> 100	> 100
CCOC(=O)Nc1n[nH]nc1Cl	> 100	> 100	> 100	> 100	> 100
Cc1cnc2c(c1)C(=O)N(c1ccc([N+](=O)[O-])cc1)S2(=O)=O	> 100	> 100	–	> 100	> 100
COc1cc2cc3c4cc(OC)c(OC)cc4cc[n+]3c(C)c2cc1OC	> 100	> 100	–	> 100	> 100
CC(=O)N=c1ccc2nc(N)nn(O)c-2c1	> 100	> 100	–	> 100	–
NC(Cc1ccccc1)c1nn[nH]n1 (stereo not given)	> 100	> 100	> 100	> 100	–
Cc1c2ccccc2c(C2C3C(=O)N(c4cccc5ccccc45)C(=O)C3ON2Cc2ccc(CC(N)=O)cc2)c2ccccc12 (stereo not given)	> 50	> 50	40	> 50	–
c1ccc(-c2cc(-c3ccncc3)cc(-c3ccncc3)n2)cc1	> 100	> 100	> 100	–	> 100
O=C(Oc1c(Br)cc(Br)cc1C(=O)Oc1ccccc1)C(=O)Oc1c(Br)cc(Br)cc1C(=O)Oc1ccccc1	75.3	> 100	27.2	–	> 100
CCCn1c(=O)c2nn3c(=O)n(CCC)c(=O)c3nn2c1=O	> 100	> 100	> 100	–	> 100
CCP(=O)(CC)C(Cl)(Cl)C(O)C(Cl)(Cl)Cl (stereo not given)	> 100	> 100	–	–	> 100
COc1ccc(NS(=O)c2c(C)cc(C)cc2C)cc1 (stereo not given)	> 100	–	–	–	> 100
COc1ccc2c(c1)-c1nc(=O)n(CCCN(C)C)c3ccc([N+](=O)[O-])c(c13)N2	8.55	17.3	–	31	17.7
C/C1=C/C[C@@H](/C(C)=C/c2csc(C)n2)OC(=O)C[C@H](O)C(C)(C)C(=O)[C@H](C)[C@@H](O)[C@@H](C)CCC1	0.237	0.214	< 0.0001	–	0.125
Oc1c(Cl)c(Cl)c(O)c(CCNc2nccs2)c1Cl	31	30.3	20.3	–	30.3
CCc1ccc(Nc2cc(=O)n(C)c(SCc3ccccc3)n2)cc1	> 100	> 100	> 100	29.7	–
Cc1cc(C)c(NC(=O)/C=C/c2ccccc2)c(C)c1	> 100	> 100	> 100	–	> 100
